Experimental data published in patent US7115603B2, “A1-pyrrolines” (priority 2001, dated 2006).
Like-named read-outs stand apart in the source and are kept apart here.

Key:
[1] = log P by HPLC on reversed-phase column (EEC Directive 79/831 Annex V.A8); assay type: physicochemical
Method: The log p values reported in the above tables and preparation examples are determined in accordance with EEC Directive 79/831 Annex V.A8 by means of HPLC (high performance liquid chromatography) on a reversed-phase column (C 18). Temperature: 43° C.
Determination is carried out in the acidic range at a pH of 2.3 using 0.1% aqueous phosphoric acid and acetonitrile as mobile phases; linear gradient from 10% acetonitrile to 90% acetonitrile. The values are marked in the tables with ^a).
Determination takes place in the neutral range at a pH of 7.5 with 0.01-molar aqueous phosphate buffer solution and acetonitrile as mobile phases; linear gradient from 10% acetonitrile to 90% acetonitrile. The values are marked in the tables with ^b).
The calibration is carried out using unbranched alkan-2-ones (having from 3 to 16 carbon atoms) whose logP values are known (logP values determined on the basis of the retention times, using linear interpolation between two successive alkanones).

[2] = test system: army worm (Spodoptera frugiperda) caterpillars; test: Spodoptera frugiperda test (cabbage leaves dipped); assay type: in vivo; details: 168 h, kill, 100 ppm active compound, 7 d, read-out: Efficacy in % after 7 d
Method: (§1) [table] To produce a suitable preparation of active compound, 1 part by weight of active compound is mixed with the stated amounts of solvent and emulsifier, and the concentrate is diluted with emulsifier-containing water to the desired concentration. Cabbage leaves (Brassica oleracea) are treated by being dipped into the preparation of active compound of the desired concentration and are populated with army worm (Spodoptera frugiperda) caterpillars whilst the leaves are still moist. After the desired period of time, the kill in % is determined. 100% means that all caterpillars have been killed; 0% means that none of the caterpillars has been killed.

[3] = test system: larvae of the mustard beetle (Phaedon cochleariae); test: Phaedon larvae test (cabbage leaves dipped); assay type: in vivo; details: 168 h, kill, 7 d, read-out: Efficacy in % after 7 d; for pest or weed control at 100 ppm: 100 ppm active compound
Method: as §1, with “larvae of the mustard beetle (Phaedon cochleariae)” for “army worm (Spodoptera frugiperda) caterpillars”, “beetle larvae” for “caterpillars”

Lucilia cuprina larvae = test: Blowfly larvae test/development-inhibiting effect; assay type: in vivo; details: for mortality at 100 ppm: 100 ppm active compound; for mortality at 20 ppm: 20 ppm active compound
Method: 20 mg of active compound are dissolved in 1 ml of dimethyl sulphoxide; lower concentrations are prepared by dilution with distilled water.
About 20 Lucilia cuprina larvae are introduced into a test tube containing about 1 cm^3 of horse meat and 0.5 ml of the test preparation of active compound. After 24 and 48 hours, the activity of the preparation is determined. The test tubes are transferred to beakers with their bases covered with sand. After a further 14 days, the test tubes are removed and the pupae/flies are counted.
The effect of the preparation is assessed according to the number of flies which have hatched after 1.5 times the development period of an untreated control. 100% means that no flies have hatched; 0% means that all of the flies have hatched normally.

[4] = test system: army worm (Spodoptera exigua) caterpillars; test: Spodoptera exigua test (cabbage leaves dipped); assay type: in vivo; details: kill
Method: as §1, with “exigua)” for “frugiperda)”

[5] = test system: cabbage moth (Plutella xylostella) caterpillars; test: Plutella test (cabbage leaves dipped); assay type: in vivo; details: kill
Method: as §1, with “cabbage moth (Plutella xylostella)” for “army worm (Spodoptera frugiperda)”

[6] = test system: Heliothis virescens caterpillars; test: Heliothis virescens test (soya bean shoots dipped); assay type: in vivo; details: kill, 100 ppm active compound
Method: as §1, with “Soya bean shoots (Glycine max)” for “Cabbage leaves (Brassica oleracea)”, “Heliothis virescens” for “army worm (Spodoptera frugiperda)”

[7] = test system: greenhouse red spider mite (Tetranychus urticae); test: Tetranychus test (OP resistant/dip treatment); assay type: in vivo; details: kill of spider mites, 100 ppm active compound
Method: [table] To produce a suitable preparation of active compound, 1 part by weight of active compound is mixed with the stated amounts of solvent and emulsifier, and the concentrate is diluted with emulsifier-containing water to the desired concentration. Bean plants (Phaseolus vulgaris) which are heavily infested by all stages of the greenhouse red spider mite (Tetranychus urticae) are dipped into a preparation of active compound of the desired concentration. After the desired period of time, the effect in % is determined. 100% means that all spider mites have been killed; 0% means that none of the spider mites has been killed.

[8] = test system: cotton aphid (Aphis gossypii); test: Aphis gossypii test (cotton leaves dipped); assay type: in vivo; details: kill, 100 ppm active compound
Method: as §1, with “Cotton” for “Cabbage”, “(Gossypium hirsutum) heavily infested by the cotton aphid (Aphis gossypii)” for “(Brassica oleracea)”, “concentration.” for “concentration and are populated with army worm (Spodoptera frugiperda) caterpillars whilst the leaves are still moist.”, “[…]” for “caterpillars”

[9] = test system: fruit tree red spider mite (Panonychus ulmi); test: Panonychus test (plum trees dipped); assay type: in vivo; details: kill of spider mites, 100 ppm active compound
Method: To produce a suitable preparation of active compound, 1 part by weight of active compound is mixed with the stated amounts of solvent and emulsifier, and the concentrate is diluted with emulsifier-containing water to the desired concentration.
Plum trees (Prunus domestica) about 30 cm high which are heavily infested by all stages of the fruit tree red spider mite (Panonychus ulmi) are dipped into a preparation of active compound of the desired concentration.
After the desired period of time, the effect in % is determined. 100% means that all spider mites have been killed; 0% means that none of the spider mites has been killed.

[10] = test system: caterpillars of the cotton bollworm (Heliothis armigera); test: Heliothis armigera test (soya bean shoots dipped); assay type: in vivo; details: kill, 20 ppm active compound
Method: [table] To produce a suitable preparation of active compound, 1 part by weight of active compound is mixed with the stated amounts of solvent and emulsifier, and the concentrate is diluted with emulsifier-containing water to the desired concentration. Soya bean shoots (Glycine max) are treated by being dipped into the preparation of active compound of the desired concentration and are populated with caterpillars of the cotton bollworm (Heliothis armigera) whilst the leaves are still moist. After the desired period of time, the kill in % is determined. 100% means that all […] have been killed; 0% means that none of the caterpillars has been killed.

[11] = reversed-phase HPLC column (C18); HPLC, acidic range pH 2.3, marked a)
[12] = 336 h, 14 d, inhibition of fly hatching, read-out: % Activity/kill (14 d)
[13] = reversed-phase HPLC column (C18); HPLC, neutral range pH 7.5, marked b)

Row | SMILES | chromatographic logP [1, 11] | pest or weed control at 100 ppm [2] [%] | pest or weed control at 100 ppm [3] [%] | mortality at 100 ppm (Lucilia cuprina larvae; [12]) [%] | Efficacy in % after 7 d ([4]; 100 ppm active compound) [%] | Efficacy in % after 7 d ([5]; 100 ppm active compound) [%] | Efficacy in % after 7 d [6] [%] | Efficacy in % after 7 d [7] [%] | chromatographic logP [1, 13] | Efficacy in % after 6 d [8] [%] | Efficacy in % after 7 d [9] [%] | mortality at 20 ppm (Lucilia cuprina larvae; [12]) [%] | pest or weed control at 20 ppm ([3]; 20 ppm active compound) [%] | mortality at 100 ppm (Lucilia cuprina larvae; 48 h, read-out: % Activity/kill (48 h)) [%] | Efficacy in % after 7 d ([4]; 20 ppm active compound) [%] | Efficacy in % after 7 d ([5]; 20 ppm active compound) [%] | Efficacy in % after 7 d [10] [%]
1 | CCOc1ccc(Br)cn1 [III-1, 5-bromo-2-ethoxypyridine] | 2.92 |  |  |  |  |  |  |  |  |  |  |  |  |  |  |  | 
2 | CCOc1ccc(-c2ccc(C3CCC(c4c(F)cccc4F)=N3)cc2)cn1 (stereo not drawn) [No. 1, 5-{4-[5-(2,6-difluorophenyl)-3,4-dihydro-2H-pyrrol-2-yl]phenyl}-2-ethoxypyridine] | 2.92 | 100 | 100 |  |  |  |  |  |  |  |  |  |  |  |  |  | 
3 | CCSc1ccc(-c2ccc(C3CCC(c4c(F)cccc4F)=N3)cc2)cn1 (stereo not drawn) [compound 4] | 3.29 | 100 | 100 | 100 | 100 | 100 | 100 | 95 | 4.54 |  |  |  |  |  |  |  | 
4 | CCCOc1ccc(-c2ccc(C3CCC(c4c(F)cccc4F)=N3)cc2)cn1 (stereo not drawn) [compound 5] | 3.42 | 100 | 100 |  | 100 | 100 | 100 | 98 | 4.77 | 99 |  |  |  |  |  |  | 
5 | CC(C)Oc1ccc(-c2ccc(C3CCC(c4c(F)cccc4F)=N3)cc2)cn1 (stereo not drawn) [compound 7] | 3.42 | 100 | 100 |  | 100 | 100 | 100 |  | 4.73 | 99 | 100 |  |  |  |  |  | 
6 | CC(C)Sc1ccc(-c2ccc(C3CCC(c4c(F)cccc4F)=N3)cc2)cn1 (stereo not drawn) [compound 8] | 3.8 | 100 | 100 |  | 100 | 100 | 100 | 98 | 4.96 |  |  |  |  |  |  |  | 
7 | Fc1cccc(F)c1C1=NC(c2ccc(-c3ccc(OC4CCC4)nc3)cc2)CC1 (stereo not drawn) [compound 19] | 3.66 | 100 |  | 100 |  |  |  | 95 | 4.9 |  |  | 100 | 100 |  |  |  | 
8 | Fc1cccc(F)c1C1=NC(c2ccc(-c3ccc(OC4CCCC4)nc3)cc2)CC1 (stereo not drawn) [compound 21] | 3.99 | 100 | 100 |  |  |  |  | 95 | 5.34 |  |  |  |  |  |  |  | 
9 | Fc1cccc(F)c1C1=NC(c2ccc(-c3ccc(OCC4CC4)nc3)cc2)CC1 (stereo not drawn) [compound 25] | 3.48 | 100 | 100 |  |  |  |  |  | 4.67 |  |  | 100 |  | 100 | 100 | 100 | 100
